According to article PMC12951568, “Identifying Structural Factors Governing the Photodynamic Activity of Phthalocyanines” (Journal of Medicinal Chemistry, 2026):
Values joined by “and” are separate entries in the source; they are usually repeats but may differ in a detail not shown here. Equal entries are not always repeated.

Legend:
[1] = Absorption and fluorescence emission spectra in DMF; format: physicochemical; details: in DMF
Description: An absorption spectrum of 2.475 mL of solvent (water, DMF, or PBS) was taken (i.e., absorption spectrum of baseline); then, 25 μL of stock solution was added to reach the final concentration of 1 μM in the cuvette, and the absorption and emission spectra were taken. Baseline of the solvent was subtracted from the obtained absorption spectrum to get the final absorption spectrum of the sample.

[2] = Fluorescence quantum yield, comparative method; format: physicochemical; details: in DMF; ZnPc as reference
Description: The fluorescence quantum yields (ΦF) were determined by a comparative method with ZnPc as the reference (ΦF = 0.32 in THF). The ΦF values were calculated using the following formula: ϕFS=ϕFR(F^S/F^R)(1−10^−A^R/1−10^−A^S)(η^S/η^R)^2 where F is the integrated area under the emission spectrum and A is the absorbance at the excitation wavelength. Superscripts R and S indicate the reference and sample, respectively. η stands for the refractive index of the solvent. Absorption in the Q-band was kept below 0.05 to eliminate the inner filter effect. Excitation wavelengths were the same as those used for emission spectra (see above). The emission wavelengths were set to their emission maxima to avoid exceeding the detector limit with stimated error ± 15%.

[3] = Fluorescence lifetime in DMF; format: physicochemical
Source text: 1 Photophysical Data of Investigated Derivatives in DMF ^a | column: τF1/ns; τF2/ns

[4] = Quantum yield of singlet oxygen production, comparative method with DPBF scavenger; format: physicochemical; details: in DMF, ZnPc as reference
Description: Eight μL of the 100 μM stock solution of the dye in DMF (or DMF + water or water; see above) was added. A xenon lamp (100 W, ozone free XE DC short arc lamp, New port) was used to irradiate the sample while stirring. The incident light was filtered through a water filter (6 cm) and cut off filter OG530 eliminating heat and light under 523 nm, respectively. […] The decrease of DPBF in solution with irradiation time was monitored at 415 nm. The values of ΦΔ of the dyes were calculated by the following equation: φΔS=φΔ[…] is the slope of the plot of the dependence of ln([…] 0 and A t being the absorbances of the DPBF at 415 nm before irradiation and after irradiation time t, respectively. I aT is the total amount of light absorbed by the dye sample. Superscripts R and S indicate the reference and sample, respectively. I aT is calculated as a sum of intensities of the absorbed light I a at wavelengths from 523 to 850 nm (step 0.5 nm). Light under 523 nm is completely filtered by an OG530 filter, and light above 850 nm is not absorbed by the studied dye sample. I a at a given wavelength is calculated using Beer-Lambert'[…]) where I 0 is transmittance of the filter at the given wavelength and A is the absorbance of the dye at this wavelength. All experiments were performed three times, and the data presented is the mean value of the three obtained results with estimated error ± 10%.

[5] = molecular target: bovine serum albumin (BSA) (Bos taurus, UniProt P02769); test: Interaction with bovine serum albumin (absorption and emission spectra in PBS); format: binding; details: 1 μM Pc in PBS, BSA 17.5, 35 and 100 μM
[6] = test system: HeLa (human cervical carcinoma); test: Photodynamic activity (phototoxicity, neutral red uptake) on HeLa; format: cell-based; details: 12 h incubation, Xe-lamp 15 min, λ > 570 nm, 11.2 J/cm^2; mean ± SD; t.w. = this work
Description: (§1) Detailed in vitro studies involving subcellular localization and determination of the EC50 in three different cell lines (human cervical carcinoma–HeLa, human breast adenocarcinoma–MCF-7, and human skin melanoma–SK-MEL-28) were performed. A broadband light source (ozone-free 450 W Xe-lamp, Newport) equipped with the long-pass filter Schott OG570 was used (12.4 mW/cm^2, 15 min, 11.2 J/cm^2).
(§2) For the cytotoxicity experiments (phototoxicity), cells were seeded at 100 μL per well into 96-well plates (TPP, Switzerland) at a density of 7.5 × 10^3 (HeLa) or 1.0 × 10^4 (MCF-7 and SK-MEL-28) cells per well. Cells were left to grow for 24 h (until they reached confluency) in a controlled environment of a CO2 incubator (37 °C, 5% CO2 atmosphere, constant high humidity). Subsequently, studied compounds were added in a wide concentration range and incubated with the cells for 12 h. Cells were washed; fresh cell culture medium was added, and the cells were irradiated using a 450 W Xe lamp (Newport, USA). The lamp was equipped with a long pass filter (Newport OG570) and an 8 cm water filter (λ > 570 nm, 12.4 mW/cm^2, 15 min, 11.2 J/cm^2). Cellular viability was assessed after an additional 24 h by the neutral red (NR; Sigma, Merck, USA) uptake assay. At least three independent experiments, each in triplicate, were performed. The soluble NR was measured at λ = 540 nm using a Tecan Infinite 200 M plate reader (Tecan, Austria). The viability of each experimental group was expressed as the percentage of the untreated cells (100% viability) after subtraction of the signal from cells treated with a lethal dose of hydrogen peroxide (0% viability). […] EC50 values were calculated, and graphs were created by using GraphPad Prism 10.3.1 (Graph Pad software, USA).

[7] = test system: MCF-7 (human breast adenocarcinoma); test: Photodynamic activity (phototoxicity, neutral red uptake) on MCF-7; format: cell-based; details: 12 h incubation, Xe-lamp 15 min, λ > 570 nm, 11.2 J/cm^2; mean ± SD; t.w. = this work
Description: as §1, §2

[8] = test system: SK-MEL-28 (human skin melanoma); test: Photodynamic activity (phototoxicity, neutral red uptake) on SK-MEL-28; format: cell-based; details: 12 h incubation, Xe-lamp 15 min, λ > 570 nm, 11.2 J/cm^2; mean ± SD; t.w. = this work
Description: as §1, §2

[9] = Log P, partition between n-octanol and PBS; format: physicochemical; details: partition coefficient between 1-octanol and PBS
Description: 400 μL portion of n-octanol and 400 μL of PBS buffer were mixed in a plastic Eppendorf vial. Then, 20 μL of the 100 μM stock solution of the sample (see above) was added to this mixture, vortexed for 5 min at rt, and then centrifuged for 10 min (10 000 rpm, rt). 50 μL of each of these layers was taken into 2.5 mL of DMF in a quartz cuvette, and their emission spectra (excitation wavelengths in Table ) were recorded. The log P value was then computed using the area under the curve of the emission spectra of n-octanol (F oct) and PBS buffer (F PBS) layers as follows: logP=log(Foct/FPBS) Triplicate measurements were performed, and the data reported are the mean of the obtained results.

bovine serum albumin (BSA), sequence (P02769 25-607): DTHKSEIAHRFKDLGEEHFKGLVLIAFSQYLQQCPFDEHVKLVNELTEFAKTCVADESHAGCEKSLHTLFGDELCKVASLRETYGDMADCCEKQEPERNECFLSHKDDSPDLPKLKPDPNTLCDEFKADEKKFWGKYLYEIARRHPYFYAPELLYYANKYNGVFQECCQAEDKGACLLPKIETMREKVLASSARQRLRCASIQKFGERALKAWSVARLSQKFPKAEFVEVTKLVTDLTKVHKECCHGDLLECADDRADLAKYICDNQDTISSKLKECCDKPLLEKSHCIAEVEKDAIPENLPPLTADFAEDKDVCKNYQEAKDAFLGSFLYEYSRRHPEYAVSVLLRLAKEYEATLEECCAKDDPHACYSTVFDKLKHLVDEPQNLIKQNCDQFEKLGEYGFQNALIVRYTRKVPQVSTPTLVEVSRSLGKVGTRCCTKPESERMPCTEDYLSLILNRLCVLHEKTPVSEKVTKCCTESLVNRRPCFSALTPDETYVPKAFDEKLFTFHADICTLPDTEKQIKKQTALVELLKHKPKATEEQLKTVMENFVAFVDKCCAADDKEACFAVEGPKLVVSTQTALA

| Compound | ε, extinction coefficient [1] | λA, absorption maximum in the Q-band [1] [nm] | λF, fluorescence emission maximum [1] [nm] | ΦF, fluorescence quantum yield [2] | τF1, fluorescence lifetime (relative amplitude in brackets) [3] | τF2, fluorescence lifetime (relative amplitude in brackets) [3] | ΦΔ, quantum yield of singlet oxygen production [4] | Interaction with BSA: disaggregation/monomerization and changes in absorption and fluorescence emission spectra [5] | EC50 [6] [nM] | EC50 [7] [nM] | EC50 [8] [nM] | Log P [9] |
| --- | --- | --- | --- | --- | --- | --- | --- | --- | --- | --- | --- | --- |
| OCc1cc(CO)cc(OCCCCSC2=C(SCCCCOc3cc(CO)cc(CO)c3)C3=Nc4c5ccccc5c5[n]4[Mg][n]4c(c6ccccc6c4=NC4=NC(=N5)c5ccccc54)=NC2=N3)c1 [N2Mg] | 15 950 M^–1cm^–1 | 684 | 687 | 0.16 | 1.29 (25%) ns | 3.39 (75%) ns | 0.17 | fluorescence was slightly enhanced | 107 ± 1 | 190 ± 40 | 119 ± 14 | – |
| C[n+]1cccc(Oc2ccc3c(c2)C2=NC3=Nc3c4cc(Oc5ccc[n+](C)c5)ccc4c4[n]3[Zn][n]3c(c5ccc(Oc6ccc[n+](C)c6)cc5c3=NC3=NC(=N4)c4cc(Oc5ccc[n+](C)c5)ccc43)=N2)c1.O=S(=O)(O)O.O=S(=O)(O)O.O=S(=O)([O-])[O-].O=S(=O)([O-])[O-] [C5Zn-SO 4] | 82 140 M^–1cm^–1 | 674 | 682 | 0.077 and 0.08 | 2.47 (94%) ns | 4.93 (6%) ns | 0.28 | – | 53 ± 9 | 80 ± 30 | 150 ± 50 | –3.57 |
| C[n+]1cccc(Oc2ccc3c(c2)C2=NC3=Nc3c4cc(Oc5ccc[n+](C)c5)ccc4c4[n]3[Zn][n]3c(c5ccc(Oc6ccc[n+](C)c6)cc5c3=NC3=NC(=N4)c4cc(Oc5ccc[n+](C)c5)ccc43)=N2)c1.[I-].[I-].[I-].[I-] [C5Zn-I] | 130 860 M^–1cm^–1 | 674 | 682 | 0.25 | 2.38 (97%) ns | 6.53 (3%) ns | 0.49 | – | 62 ± 13 | 60 ± 10 | 110 ± 10 | –2.19 |
| COCCOCCOCCOCCOc1ccc(OCCOCCOCCOCCOC)c2c1C1=NC2=Nc2c3ccccc3c3[n]2[Zn][n]2c(c4ccccc4c2=N1)=NC1=NC(=N3)c2ccccc21 [N1Zn] | 82 550 M^–1cm^–1 | 689 | 702 | 0.24 | 2.41 ns | – | 0.67 | monomerization was apparent even from the absorption spectra | 17 ± 5 | 6 ± 1 | 16 ± 3 | – |
| O=S(=O)([O-])c1ccc(Oc2cccc3c2C2=Cc4c5cccc(Oc6ccc(S(=O)(=O)[O-])c7cccnc67)c5c5[n]4[Zn][n]4c(c6cccc(Oc7ccc(S(=O)(=O)[O-])c8cccnc78)c6c4=CC3=N2)=CC2=NC(=C5)c3cccc(Oc4ccc(S(=O)(=O)[O-])c5cccnc45)c32)c2ncccc12.[Na+].[Na+].[Na+].[Na+] [A8Zn] | 197 610 M^–1cm^–1 | 696 | 708 | 0.26 | – | – | 0.69 | complete | – | 2470 ± 810 | 1200 ± 280 | –3.64 |
| C[n+]1cccc(Oc2ccc3c(c2)C2=NC3=Nc3c4cc(Oc5ccc[n+](C)c5)ccc4c4[n]3[Zn][n]3c(c5ccc(Oc6ccc[n+](C)c6)cc5c3=NC3=NC(=N4)c4cc(Oc5ccc[n+](C)c5)ccc43)=N2)c1.F[P-](F)(F)(F)(F)F.F[P-](F)(F)(F)(F)F.F[P-](F)(F)(F)(F)F.F[P-](F)(F)(F)(F)F [C5Zn-PF 6] | 86 800 M^–1cm^–1 | 674 | 682 | 0.28 | 2.32 (97%) ns | 6.31 (3%) ns | 0.45 | – | 52 ± 26 | 100 ± 20 | 190 ± 40 | –2.37 |
| O=S(=O)([O-])c1cc(S(=O)(=O)[O-])c2cc(Oc3cccc4c3C3=NC4=Nc4c5c(Oc6ccc7cc(S(=O)(=O)[O-])cc(S(=O)(=O)[O-])c7c6)cccc5c5[n]4[Zn][n]4c(c6cccc(Oc7ccc8cc(S(=O)(=O)[O-])cc(S(=O)(=O)[O-])c8c7)c6c4=NC4=NC(=N5)c5c(Oc6ccc7cc(S(=O)(=O)[O-])cc(S(=O)(=O)[O-])c7c6)cccc54)=N3)ccc2c1.[Na+].[Na+].[Na+].[Na+].[Na+].[Na+].[Na+].[Na+] [A7Zn] | 109 950 M^–1cm^–1 | 696 | 707 | 0.23 | – | – | 0.55 | complete | 1300 ± 400 | 5100 ± 350 | 2120 ± 560 | –2.92 |
